Measurements from patent US8168680B2, “Cyclopentane heptan(ENE)OIC acid, 2-heteroarylalkenyl derivatives as therapeutic agents” (Allergan, Inc., priority 2004, dated 2012).

Experiments:
Assay type in all cases: cell-based
hFP = target: T1, hFP (Homo sapiens, UniProt P43088); assay: FLIPR calcium signal, HEK-293(EBNA) cells expressing hFP; details: recombinant human FP receptor, read-out: FUNCTIONAL DATA EC50 HFP
T1 construct: expressed in transfected cells; host or cells: HEK-293(EBNA)
Protocol: (§1) Methods for FLIPR™ Studies
(§2) HEK-293(EBNA) cells, stably expressing one type or subtype of recombinant human prostaglandin receptors (prostaglandin receptors expressed: hDP/Gqs5; hEP1; hEP2/Gqs5; hEP3A/Gqi5; hEP4/Gqs5; hFP; hIP; hTP), were cultured in 100 mm culture dishes in high-glucose DMEM medium containing 10% fetal bovine serum, 2 mM 1-glutamine, 250 μg/ml geneticin (G418) and 200 μg/ml hygromycin B as selection markers, and 100 units/ml penicillin G, 100 μg/ml streptomycin and 0.25 μg/ml amphotericin B.
(§3) (b) Calcium Signal Studies on the FLIPR™
(§4) Cells were seeded at a density of 5×10^4 cells per well in Biocoat® Poly-D-lysine-coated black-wall, clear-bottom 96-well plates (Becton-Dickinson) and allowed to attach overnight in an incubator at 37° C. Cells were then washed two times with HBSS-HEPES buffer (Hanks Balanced Salt Solution without bicarbonate and phenol red, 20 mM HEPES, pH 7.4) using a Denley Cellwash plate washer (Labsystems). After 45 minutes of dye-loading in the dark, using the calcium-sensitive dye Fluo-4 AM at a final concentration of 2 μM, plates were washed four times with HBSS-HEPES buffer to remove excess dye leaving 100 μl in each well. Plates were re-equilibrated to 37° C. for a few minutes.
(§5) Cells were excited with an Argon laser at 488 nm, and emission was measured through a 510-570 nm bandwidth emission filter (FLIPR™, Molecular Devices, Sunnyvale, Calif.). Drug solution was added in a 50 μl volume to each well to give the desired final concentration. The peak increase in fluorescence intensity was recorded for each well. On each plate, four wells each served as negative (HBSS-HEPES buffer) and positive controls (standard agonists: BW245C (hDP); PGE2 (hEP1; hEP2/Gqs5; hEP3A/Gqi5; hEP4/Gqs5); PGF2α (hFP); carbacyclin (hIP); U-46619 (hTP), depending on receptor). The peak fluorescence change in each drug-containing well was then expressed relative to the controls.
Compounds were tested in a high-throughput (HTS) or concentration-response (CoRe) format. In the HTS format, forty-four compounds per plate were examined in duplicates at a concentration of 10^−5 M. To generate concentration-response curves, four compounds per plate were tested in duplicates in a concentration range between 10^−5 and 10^−11 M. The duplicate values were averaged. In either, HTS or CoRe format each compound was tested on at least 3 separate plates using cells from different passages to give an n≧3.

hEP3A/Gqi5 = target: T2, hEP3A/Gqi5 (Homo sapiens, UniProt P43115); assay: FLIPR calcium signal, HEK-293(EBNA) cells expressing hEP3A/Gqi5; details: recombinant human EP3A/Gqi5, HEK-293(EBNA), read-out: FUNCTIONAL DATA EC50 HEP3A
T2 construct: expressed in transfected cells; host or cells: HEK-293(EBNA)
T2 sequence (P43115 1-390): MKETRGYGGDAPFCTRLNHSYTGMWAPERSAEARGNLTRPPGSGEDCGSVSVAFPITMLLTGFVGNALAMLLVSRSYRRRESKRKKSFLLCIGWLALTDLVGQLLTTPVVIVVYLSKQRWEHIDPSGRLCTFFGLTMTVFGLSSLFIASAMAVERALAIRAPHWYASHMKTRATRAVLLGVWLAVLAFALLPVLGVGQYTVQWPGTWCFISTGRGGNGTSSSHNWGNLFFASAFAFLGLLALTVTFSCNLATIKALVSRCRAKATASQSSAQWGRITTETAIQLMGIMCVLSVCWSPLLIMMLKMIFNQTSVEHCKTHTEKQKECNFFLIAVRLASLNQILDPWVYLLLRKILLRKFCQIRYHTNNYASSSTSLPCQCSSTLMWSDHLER
Protocol: as §1, §2, §3, §4, §5
(§6) Compounds were tested in a high-throughput (HTS) or concentration-response (CoRe) format. […]

hTP = target: T3, hTP (Homo sapiens, UniProt P21731); assay: FLIPR calcium signal, HEK-293(EBNA) cells expressing hTP; details: recombinant human TP receptor, read-out: FUNCTIONAL DATA EC50 HTP
T3 construct: expressed in transfected cells; host or cells: HEK-293(EBNA)
T3 sequence (P21731 1-343): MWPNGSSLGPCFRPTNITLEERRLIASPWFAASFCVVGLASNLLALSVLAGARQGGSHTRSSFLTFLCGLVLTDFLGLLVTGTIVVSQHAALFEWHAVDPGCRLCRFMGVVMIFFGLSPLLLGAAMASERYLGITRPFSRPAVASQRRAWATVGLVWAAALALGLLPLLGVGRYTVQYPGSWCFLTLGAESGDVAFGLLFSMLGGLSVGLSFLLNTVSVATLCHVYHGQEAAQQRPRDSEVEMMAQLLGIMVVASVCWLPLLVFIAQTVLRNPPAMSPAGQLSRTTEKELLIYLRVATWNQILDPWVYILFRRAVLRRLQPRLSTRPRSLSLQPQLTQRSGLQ
Protocol: as §1, §2, §3, §4, §5, §6

T1 sequence (P43088 whole entry): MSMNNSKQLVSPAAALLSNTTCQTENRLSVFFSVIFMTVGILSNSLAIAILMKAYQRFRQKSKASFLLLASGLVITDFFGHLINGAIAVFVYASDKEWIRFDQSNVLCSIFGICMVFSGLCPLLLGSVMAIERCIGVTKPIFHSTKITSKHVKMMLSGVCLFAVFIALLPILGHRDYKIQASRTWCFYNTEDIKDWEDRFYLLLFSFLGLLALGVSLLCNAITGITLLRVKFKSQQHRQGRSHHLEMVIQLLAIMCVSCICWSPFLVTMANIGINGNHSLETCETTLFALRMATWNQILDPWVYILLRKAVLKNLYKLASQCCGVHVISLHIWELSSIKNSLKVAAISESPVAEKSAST

An EC50 (hFP) of 0.043 µM was found for `Cc1sc(CC[C@H](O)/C=C/[C@H]2[C@H](C)CC(O)[C@@H]2C/C=C\CCCC(=O)O)cc1Br` (single isomer, unassigned) in this work.

An EC50 (hEP3A/Gqi5) of 0.554 µM and an EC50 (hFP) of 1.53 µM were found for `C=C[C@@H]1CC(O)[C@H](C/C=C\CCCC(=O)O)[C@H]1/C=C/[C@@H](O)CCc1cc(Br)c(C)s1` (single isomer, unassigned) [drawing 48] in this work.

An EC50 (hEP3A/Gqi5) of 6.01 µM, an EC50 (hFP) of 0.742 µM and an EC50 (hTP) of 1.81 µM were found for `C=C[C@@H]1CC(O)[C@H](C/C=C\CCCC(=O)OC)[C@H]1/C=C/[C@@H](O)CCc1cc(Br)c(C)s1` (single isomer, unassigned) [drawing 49] in this work.

An EC50 (hEP3A/Gqi5) of 0.304 µM, an EC50 (hFP) of 0.061 µM and an EC50 (hTP) of 0.243 µM were found for `C=C[C@@H]1CC(O)[C@H](C/C=C\CCCC(=O)O)[C@H]1/C=C/[C@@H](O)CCc1cc(Br)c(C)s1` (single isomer, unassigned) [drawing 47] in this work.

An EC50 (hFP) of over 10 µM and an EC50 (hTP) of over 10 µM were found for `C=C[C@@H]1CC(O)[C@H](C/C=C\CCCC(=O)OC)[C@H]1/C=C/[C@@H](O)CCc1cc(Br)c(C)s1` (single isomer, unassigned) [drawing 51] in this work.
